The results in this text go back to ChEMBL document CHEMBL3792338, “Discovery of biaryls as RORγ inverse agonists by using structure-based design” (Bioorg Med Chem Lett, 2016).

The IC50 is the concentration at which inhibition is half-maximal. The EC50 is the concentration at which the effect is half-maximal. Higher therefore signals weaker potency. The term solubility denotes how much of the substance goes into solution per volume.

Data set [1] addresses T1, Nuclear receptor ROR-gamma (Homo sapiens, UniProt P51449).
T1 sequence (P51449 whole entry): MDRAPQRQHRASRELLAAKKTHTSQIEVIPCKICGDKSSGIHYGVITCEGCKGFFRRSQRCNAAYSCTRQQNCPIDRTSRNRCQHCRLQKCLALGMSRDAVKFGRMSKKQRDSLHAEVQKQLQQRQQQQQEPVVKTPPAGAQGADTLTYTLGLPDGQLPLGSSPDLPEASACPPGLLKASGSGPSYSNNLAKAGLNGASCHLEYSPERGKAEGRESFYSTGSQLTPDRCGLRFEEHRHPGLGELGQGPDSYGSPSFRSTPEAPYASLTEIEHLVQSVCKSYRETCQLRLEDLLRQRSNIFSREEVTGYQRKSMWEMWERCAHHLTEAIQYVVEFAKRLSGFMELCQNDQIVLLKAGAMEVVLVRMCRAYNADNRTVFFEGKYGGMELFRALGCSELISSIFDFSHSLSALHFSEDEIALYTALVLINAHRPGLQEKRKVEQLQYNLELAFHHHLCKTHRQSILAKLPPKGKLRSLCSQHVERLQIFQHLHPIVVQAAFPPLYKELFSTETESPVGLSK
Description: Inverse agonist activity at recombinant human GST-tagged ROR-gamma receptor ligand binding domain assessed as inhibition of receptor and co-activator TRAP220 interaction by FRET assay.

Data set [2] concerns the target T2, Nuclear receptor ROR-alpha (Homo sapiens, UniProt P35398).
T2 sequence (P35398 whole entry): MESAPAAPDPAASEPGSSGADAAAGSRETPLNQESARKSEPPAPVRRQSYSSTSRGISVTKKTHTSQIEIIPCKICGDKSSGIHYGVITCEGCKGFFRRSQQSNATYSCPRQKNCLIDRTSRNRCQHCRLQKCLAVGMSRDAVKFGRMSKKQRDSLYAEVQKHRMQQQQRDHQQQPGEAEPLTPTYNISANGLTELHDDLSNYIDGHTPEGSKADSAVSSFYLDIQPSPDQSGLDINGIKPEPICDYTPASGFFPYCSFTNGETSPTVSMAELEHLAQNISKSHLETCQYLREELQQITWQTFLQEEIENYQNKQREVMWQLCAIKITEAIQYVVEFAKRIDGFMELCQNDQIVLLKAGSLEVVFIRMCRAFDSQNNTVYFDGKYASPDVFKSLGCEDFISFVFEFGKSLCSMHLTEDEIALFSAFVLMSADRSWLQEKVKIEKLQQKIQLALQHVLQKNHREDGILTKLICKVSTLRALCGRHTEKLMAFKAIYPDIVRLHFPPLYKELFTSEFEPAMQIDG
The experiment in a line: Inverse agonist activity at human ROR-alpha transfected in HEK293T cells by Gal4 luciferase reporter gene assay. In kind it is cell-based, HEK-293T. A general note: Reporter assays use an easily measured gene product as a stand-in for the process of interest.

Data set [3] addresses T3, Nuclear receptor ROR-beta (Homo sapiens, UniProt Q92753).
T3 sequence (Q92753 whole entry): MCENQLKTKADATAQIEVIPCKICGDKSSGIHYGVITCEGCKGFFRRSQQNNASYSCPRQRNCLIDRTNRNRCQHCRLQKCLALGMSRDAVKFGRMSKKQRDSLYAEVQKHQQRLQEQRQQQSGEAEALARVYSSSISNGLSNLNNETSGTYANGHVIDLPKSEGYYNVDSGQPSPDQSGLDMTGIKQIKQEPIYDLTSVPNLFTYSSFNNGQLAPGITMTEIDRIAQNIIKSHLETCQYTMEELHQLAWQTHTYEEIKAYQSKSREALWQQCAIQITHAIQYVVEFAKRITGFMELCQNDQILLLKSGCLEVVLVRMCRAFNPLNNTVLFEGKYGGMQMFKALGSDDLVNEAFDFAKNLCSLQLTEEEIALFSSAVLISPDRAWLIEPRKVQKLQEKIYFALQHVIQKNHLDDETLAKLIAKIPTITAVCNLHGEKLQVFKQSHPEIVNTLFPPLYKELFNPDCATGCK
Description: Inverse agonist activity at human ROR-beta transfected in HEK293T cells by Gal4 luciferase reporter gene assay. It is filed as cell-based, HEK-293T.

Data set [4] can be described thus: Aqueous solubility of compound at pH 6.8. It is filed as physicochemical.
In data set [5] the target is T4, Bile acid receptor (Homo sapiens) (UniProt Q96RI1).
T4 sequence (whole entry): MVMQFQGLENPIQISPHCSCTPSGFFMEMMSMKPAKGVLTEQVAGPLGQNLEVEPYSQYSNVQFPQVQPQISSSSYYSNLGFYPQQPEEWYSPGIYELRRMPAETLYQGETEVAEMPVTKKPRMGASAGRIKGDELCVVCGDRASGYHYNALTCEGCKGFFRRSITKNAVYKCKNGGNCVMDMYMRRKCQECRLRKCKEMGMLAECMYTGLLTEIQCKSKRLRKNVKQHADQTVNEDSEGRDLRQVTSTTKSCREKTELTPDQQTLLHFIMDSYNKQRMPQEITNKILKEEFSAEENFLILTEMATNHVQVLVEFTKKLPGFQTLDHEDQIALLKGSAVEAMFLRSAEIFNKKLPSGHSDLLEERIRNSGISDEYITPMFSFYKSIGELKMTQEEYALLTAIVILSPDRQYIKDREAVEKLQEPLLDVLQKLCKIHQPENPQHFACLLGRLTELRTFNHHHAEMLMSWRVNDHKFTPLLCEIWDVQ
Description: Agonist activity at FXR (unknown origin) at 10 uM.

Data set [6] deals with T5, Nuclear receptor subfamily 1 group I member 2 (Homo sapiens, UniProt O75469).
T5 sequence (O75469 whole entry): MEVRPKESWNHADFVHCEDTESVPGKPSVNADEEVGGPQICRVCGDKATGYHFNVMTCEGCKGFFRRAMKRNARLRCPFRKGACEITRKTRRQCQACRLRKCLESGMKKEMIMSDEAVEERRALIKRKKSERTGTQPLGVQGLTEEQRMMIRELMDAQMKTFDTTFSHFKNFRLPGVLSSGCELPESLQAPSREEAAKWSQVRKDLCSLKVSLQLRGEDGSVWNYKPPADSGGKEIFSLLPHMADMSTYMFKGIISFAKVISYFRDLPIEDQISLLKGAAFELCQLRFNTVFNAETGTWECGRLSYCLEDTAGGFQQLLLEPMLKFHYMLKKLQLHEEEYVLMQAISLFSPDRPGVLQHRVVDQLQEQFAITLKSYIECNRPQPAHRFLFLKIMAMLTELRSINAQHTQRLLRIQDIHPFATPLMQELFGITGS
Description: Agonist activity at PXR (unknown origin) at 10 uM.

Data set [7] addresses Liver X receptor (Homo sapiens) (UniProt Q13133+P55055). The experiment in a line: Agonist activity at LXR (unknown origin) at 10 uM. It is filed as protein assay.
Data set [8] deals with Cytochrome P450 3A4 (Homo sapiens, UniProt P08684). Description: Inhibition of CYP3A4 (unknown origin). It is filed as ADME.
Sequence of Cytochrome P450 3A4 (P08684 whole entry): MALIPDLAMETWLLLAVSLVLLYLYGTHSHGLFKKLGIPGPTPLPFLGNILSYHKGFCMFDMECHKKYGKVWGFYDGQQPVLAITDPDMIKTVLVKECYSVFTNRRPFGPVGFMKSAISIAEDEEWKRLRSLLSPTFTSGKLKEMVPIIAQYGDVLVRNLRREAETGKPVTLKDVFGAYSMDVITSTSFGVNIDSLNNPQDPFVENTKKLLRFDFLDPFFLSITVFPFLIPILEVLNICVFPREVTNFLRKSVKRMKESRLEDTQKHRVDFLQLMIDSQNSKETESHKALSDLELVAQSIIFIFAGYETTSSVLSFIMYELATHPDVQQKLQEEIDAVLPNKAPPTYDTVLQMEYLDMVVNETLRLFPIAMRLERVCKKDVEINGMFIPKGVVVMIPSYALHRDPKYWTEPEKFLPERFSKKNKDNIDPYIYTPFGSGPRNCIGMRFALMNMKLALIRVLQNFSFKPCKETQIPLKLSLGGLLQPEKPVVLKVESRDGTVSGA
For data set [9], the target named is T5, Nuclear receptor subfamily 1 group I member 2. Description: Agonist activity at PXR (unknown origin).

Converted amounts (≈) assume the structure as drawn.

As to `Cc1cc2nccn2cc1-c1ccc(N(CC(F)(F)F)S(=O)(=O)c2cccc3c2ccn3C)cc1`, the IC50 in data set [1] is 2.8 µM.

`Cc1cc(O)ccc1-c1ccc(N(CC(F)(F)F)S(=O)(=O)c2cccc(Cl)c2)cc1`: the IC50 in [1] was 0.52 µM.

For the compound `Cc1ccc(S(=O)(=O)N(CC(F)(F)F)c2ccc3c(c2)CCCN3C(=O)c2cccs2)cc1C`, the IC50 in data set [1] turned out to be 0.2 µM.

In the case of `Cn1ccc2c(S(=O)(=O)N(CC(F)(F)F)c3ccc(-c4cccc(C(N)=O)c4)cc3)cccc21`, the IC50 in data set [1] worked out at 1.5 µM.

As to `NC(=O)c1ccccc1-c1ccc2c(c1)CCCN2C(=O)c1c(F)cccc1Cl`, the half-inhibitory concentration (IC50) in data set [1] is above 10 µM.

Consider `Cc1cc2nccn2cc1-c1ccc(N(CC(F)(F)F)S(=O)(=O)c2cccc(Cl)c2)cc1`, for which the IC50 in [1] came out at 0.52 µM.

For the compound `CNC(=O)c1ccc(F)c(-c2ccc(N(CC(F)(F)F)S(=O)(=O)c3cccc(Cl)c3)cc2)c1`, the IC50 in data set [1] was 7.8 µM.

Take `NC(=O)c1ccc(Cl)c(-c2ccc3c(c2)CCCN3C(=O)c2c(F)cccc2Cl)c1`: the EC50 in data set [2] is 0.39 µM; in data set [3] it was 1.1 µM. Besides, the solubility in [4] (aqueous, read-out: solubility) worked out at 0.04 µg/mL (≈ 0.0902 µM).

As for `Cn1ccc2c(S(=O)(=O)N(CC(F)(F)F)c3ccc(C(O)(C(F)(F)F)C(F)(F)F)cc3)cccc21`, in data set [1], the half-inhibitory concentration (IC50) turned out to be 0.072 µM. Further, the Activity in [5], in data set [6] and in [7] was 100% in each case. Moreover, the solubility in data set [4] (aqueous, read-out: solubility) is below 0.5 µg/mL.

As to `Cc1cc(O)ccc1-c1ccc(N(CC(F)(F)F)S(=O)(=O)c2cccc3c2ccn3C)cc1`, the IC50 in [1] was determined as 0.21 µM.

On to `CNC(=O)c1ccc(F)c(-c2ccc(N(CC(F)(F)F)S(=O)(=O)c3cccc4c3ccn4C)cc2)c1`, for which the IC50 in data set [1] is 4.7 µM.

As to `O=C(c1cc(F)cc(-c2ccc3c(c2)CCCN3C(=O)c2c(F)cccc2Cl)c1)N1CCOCC1`, the IC50 in [1] was 8.1 µM.

Take `Cc1cc(C2(C(=O)O)CC2)ccc1-c1ccc(N(CC(F)(F)F)S(=O)(=O)c2cccc(Cl)c2)cc1`: the IC50 in data set [1] is above 10 µM.

Take `CNC(=O)c1cccc(-c2ccc(N(CC(F)(F)F)S(=O)(=O)c3cccc4c3ccn4C)cc2)c1`: the concentration for half-maximal inhibition (IC50) in [1] is 3.2 µM.

On to `NS(=O)(=O)c1cccc(-c2ccc3c(c2)CCCN3C(=O)c2c(F)cccc2Cl)c1`, for which the half-maximal inhibitory concentration (IC50) in data set [1] is 10 µM.

As to `CNC(=O)c1cccc(-c2ccc(N(CC(F)(F)F)S(=O)(=O)c3cccc(Cl)c3)cc2)c1`, the half-inhibitory concentration (IC50) in data set [1] is above 10 µM.

As for `O=S(=O)(c1cccc(Cl)c1)N(CC(F)(F)F)c1ccc(C(O)(C(F)(F)F)C(F)(F)F)cc1`, in [1], the concentration for half-maximal inhibition (IC50) was 0.072 µM. Further, the Activity in [5], in data set [6] and in [7] was 100% in each case. The solubility in [4] (aqueous, read-out: solubility) was below 0.5 µg/mL.

Take `NC(=O)c1ccc(Cl)c(-c2ccc(N(CC(F)(F)F)S(=O)(=O)c3cccc(Cl)c3)cc2)c1`: the half-maximal inhibitory concentration (IC50) in [1] was 4.2 µM.

As for `Cc1ccc(S(=O)(=O)Nc2ccc3c(c2)CCCN3C(=O)c2cccs2)cc1C`, the 50% inhibitory concentration (IC50) in [1] came out at 1.47 µM.

Regarding `Cc1cc(CO)ccc1-c1ccc(N(CC(F)(F)F)S(=O)(=O)c2cccc3c2ccn3C)cc1`, the IC50 in data set [1] amounted to 0.63 µM.

For `Cc1cc(CO)ccc1-c1ccc(N(CC(F)(F)F)S(=O)(=O)c2cccc(Cl)c2)cc1`, the IC50 in [1] amounted to 6.5 µM.

For `CNS(=O)(=O)c1cccc(-c2ccc3c(c2)CCCN3C(=O)c2c(F)cccc2Cl)c1`, in [1], the IC50 is 6.4 µM.

As for `Cc1cc(C2(C(=O)O)CC2)ccc1-c1ccc(N(CC(F)(F)F)S(=O)(=O)c2cccc3c2ccn3C)cc1`, the IC50 in data set [1] was found to be 0.91 µM.

For the compound `Cc1ccc(S(=O)(=O)N(CC(F)(F)F)c2ccc3c(c2)CCCN3C(=O)c2c(F)cccc2Cl)cc1C`, the half-inhibitory concentration (IC50) in data set [1] was 0.01 µM. In addition, the “inhibition (INH)” value in data set [8] is given as “Active”. In addition, the result in [9] was Active. Further, in data set [4] (buffer), the solubility result was “Insoluble”.

For the compound `O=C(c1ccc(F)c(-c2ccc3c(c2)CCCN3C(=O)c2c(F)cccc2Cl)c1)N1CCCC1`, the 50% inhibitory concentration (IC50) in data set [1] was 1.9 µM.

In the case of `Cn1ccc2c(S(=O)(=O)N(CC(F)(F)F)c3ccc4c(c3)CCCN4C(=O)c3cccs3)cccc21`, the IC50 in [1] came out at 0.056 µM.

As to `NC(=O)c1cccc(-c2ccc(N(CC(F)(F)F)S(=O)(=O)c3cccc(Cl)c3)cc2)c1`, the IC50 in [1] stood at 3.8 µM.
